Bounds are passed on as bounds.

The record followed here is patent US7329652B2, “Diaminotriazole compounds useful as protein kinase inhibitors” (Vertex Pharamaceuticals Incorporated, priority 2004, dated 2008).

The target of one experiment is T1, JAK3 (Homo sapiens, UniProt P52333).
T1 sequence (P52333 1-1124): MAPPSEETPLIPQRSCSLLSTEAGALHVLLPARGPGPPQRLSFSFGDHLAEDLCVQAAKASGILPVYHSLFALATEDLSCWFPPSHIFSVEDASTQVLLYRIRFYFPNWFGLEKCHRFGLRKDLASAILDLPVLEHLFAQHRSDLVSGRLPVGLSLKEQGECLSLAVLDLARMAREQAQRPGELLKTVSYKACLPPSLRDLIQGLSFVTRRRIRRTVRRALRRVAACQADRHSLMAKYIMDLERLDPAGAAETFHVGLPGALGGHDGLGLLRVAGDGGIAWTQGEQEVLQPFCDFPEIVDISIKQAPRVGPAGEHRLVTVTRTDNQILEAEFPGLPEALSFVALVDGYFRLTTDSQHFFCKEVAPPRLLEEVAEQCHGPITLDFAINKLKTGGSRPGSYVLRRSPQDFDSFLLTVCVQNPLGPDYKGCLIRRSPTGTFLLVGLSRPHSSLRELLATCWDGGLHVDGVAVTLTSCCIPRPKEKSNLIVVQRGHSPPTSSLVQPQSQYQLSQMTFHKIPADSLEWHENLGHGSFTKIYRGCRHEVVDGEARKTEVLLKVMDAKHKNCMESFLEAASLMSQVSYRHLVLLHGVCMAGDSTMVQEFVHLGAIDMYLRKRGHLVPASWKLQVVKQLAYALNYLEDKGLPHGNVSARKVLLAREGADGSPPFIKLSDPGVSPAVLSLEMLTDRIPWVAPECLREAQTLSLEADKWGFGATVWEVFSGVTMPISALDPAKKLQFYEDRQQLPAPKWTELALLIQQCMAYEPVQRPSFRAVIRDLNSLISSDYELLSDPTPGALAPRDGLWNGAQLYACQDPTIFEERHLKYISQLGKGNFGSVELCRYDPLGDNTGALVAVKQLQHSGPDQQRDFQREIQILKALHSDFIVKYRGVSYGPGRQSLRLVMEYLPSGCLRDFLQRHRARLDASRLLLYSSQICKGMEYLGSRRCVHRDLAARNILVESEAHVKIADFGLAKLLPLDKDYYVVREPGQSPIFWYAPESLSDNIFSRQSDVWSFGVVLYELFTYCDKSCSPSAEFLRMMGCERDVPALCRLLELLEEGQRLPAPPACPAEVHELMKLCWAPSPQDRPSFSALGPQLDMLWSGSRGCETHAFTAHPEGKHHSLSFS
As to the kind of experiment: JAK3 inhibition assay (radiometric 33P filter assay). The experiment is classed as biochemical. As to conditions: 1 μM poly(Glu)4Tyr, 5 μM ATP, 1 nM JAK3, 25° C.; read-out: JAK3 inhibition data (Ki). The method in brief:
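Final conditions were 1 nM JAK3, 5 μM ATP (200 uCi/μmole) and 1 μM poly(Glu)4Tyr in 100 mM HEPES pH 7.4, 10 mM MgCl2, 25 mM NaCl, 1 mM DTT and 0.01% BSA. After 20 min at 25 °C the reaction was stopped with TCA. 33P incorporation was counted after glass-fibre filtration.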

The target of another experiment is JAK-2 enzyme (Homo sapiens, UniProt O60674). As to the kind of experiment: JAK2 inhibition assay (radiometric 33P filter assay). The experiment is classed as biochemical. The note with it: 15 μM poly(Glu)4Tyr, 12 μM ATP; read-out: JAK2 inhibition data (Ki). The method in brief:
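JAK-2 enzyme in 100 mM HEPES pH 7.4, 1 mM DTT, 10 mM MgCl2, 25 mM NaCl, 0.01% BSA, with final 12 μM [33P]ATP and 15 μM poly(Glu)4Tyr. Reactions ran 20 min at 25 °C and were stopped with TCA. 33P incorporation was counted after glass-fibre filtration.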

JAK-2 enzyme, sequence (O60674 whole entry, species assumed): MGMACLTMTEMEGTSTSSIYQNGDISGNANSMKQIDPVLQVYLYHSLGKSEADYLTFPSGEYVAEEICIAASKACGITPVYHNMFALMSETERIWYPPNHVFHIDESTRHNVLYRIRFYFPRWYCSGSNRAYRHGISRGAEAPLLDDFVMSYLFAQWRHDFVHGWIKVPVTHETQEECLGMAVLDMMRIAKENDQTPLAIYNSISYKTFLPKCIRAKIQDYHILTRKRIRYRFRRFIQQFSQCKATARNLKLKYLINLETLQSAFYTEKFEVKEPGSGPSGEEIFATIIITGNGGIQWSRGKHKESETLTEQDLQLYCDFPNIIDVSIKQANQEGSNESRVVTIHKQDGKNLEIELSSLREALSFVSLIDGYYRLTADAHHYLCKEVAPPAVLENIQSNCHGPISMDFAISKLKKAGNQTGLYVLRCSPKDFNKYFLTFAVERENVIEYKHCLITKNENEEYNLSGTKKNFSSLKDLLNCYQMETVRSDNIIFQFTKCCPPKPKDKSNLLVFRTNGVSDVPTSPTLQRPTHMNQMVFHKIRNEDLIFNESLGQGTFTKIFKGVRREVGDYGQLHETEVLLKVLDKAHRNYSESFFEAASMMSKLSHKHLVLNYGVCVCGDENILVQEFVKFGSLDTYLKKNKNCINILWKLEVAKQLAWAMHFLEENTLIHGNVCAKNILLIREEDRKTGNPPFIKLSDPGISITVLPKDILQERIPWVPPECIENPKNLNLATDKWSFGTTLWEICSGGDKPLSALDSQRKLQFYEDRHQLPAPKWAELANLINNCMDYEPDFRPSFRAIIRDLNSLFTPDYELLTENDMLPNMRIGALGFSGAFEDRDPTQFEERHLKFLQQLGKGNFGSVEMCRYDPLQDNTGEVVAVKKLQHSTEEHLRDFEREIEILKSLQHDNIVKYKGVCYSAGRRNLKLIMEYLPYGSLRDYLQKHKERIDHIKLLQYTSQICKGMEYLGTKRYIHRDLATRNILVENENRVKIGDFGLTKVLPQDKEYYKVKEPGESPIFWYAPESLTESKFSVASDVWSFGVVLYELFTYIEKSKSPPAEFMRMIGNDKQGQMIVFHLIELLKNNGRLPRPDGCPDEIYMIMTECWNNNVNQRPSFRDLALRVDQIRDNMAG

As usually defined, the Ki is the dissociation constant of the complex between target and ligand, obtained from inhibition or displacement. With `CCOC(=O)CCNC(=O)Nc1ccc(Nc2nc(N)n(-c3cc(N4C[C@@H](C)N(C(C)=O)[C@@H](C)C4)ncn3)n2)cc1` [Compound 72], the Ki at JAK3 and on JAK-2 enzyme was below 50 nM each time.

In the case of `CCOC(=O)Nc1ccc(Nc2nc(N)n(-c3ccnc(N4C[C@@H](C)N(C(C)=O)[C@@H](C)C4)c3)n2)cc1` [Compound 101], the Ki at JAK3 and at JAK-2 enzyme was below 50 nM in each case.

Consider `CNc1ccc(Nc2nc(N)n(-c3cc(N4C[C@@H](C)N(C(C)=O)[C@@H](C)C4)ncn3)n2)cc1` [Compound 116], for which the Ki at JAK3 and on JAK-2 enzyme was below 50 nM in each case.

On to `CCCOC(=O)Nc1ccc(Nc2nc(N)n(-c3cc(N4C[C@@H](C)N(C(C)=O)[C@@H](C)C4)ncn3)n2)cc1` [Compound 77], for which the Ki on JAK3 and on JAK-2 enzyme was below 50 nM each time.

For the compound `CCCOC(=O)N1CCN(c2ccc(Nc3nc(N)n(-c4cc(N5C[C@@H](C)N(C(C)=O)[C@@H](C)C5)ncn4)n3)cc2)CC1` [Compound 55], the Ki at JAK3 and on JAK-2 enzyme was below 50 nM in each case.

As for `CC(=O)N1[C@H](C)CN(c2cc(-n3nc(Nc4ccc(N5CCOCC5)cc4)nc3N)ccn2)C[C@@H]1C` [Compound 17], the inhibitory constant (Ki) on JAK3 and at JAK-2 enzyme was below 50 nM in each case.

For `CCCCOC(=O)Nc1ccc(Nc2nc(N)n(-c3ccnc(N4CCCN(C(C)=O)CC4)c3)n2)cc1` [Compound 174], the Ki at JAK3 and at JAK-2 enzyme was 50 to 500 nM each time.

Turning to `CC(=O)N1CCCN(c2cc(-n3nc(Nc4ccc(NC(=O)NC(C)C)cc4)nc3N)ncn2)CC1` [Compound 86], the Ki on JAK3 and at JAK-2 enzyme was below 50 nM each time.

`CCCOC(=O)N(C)c1ccc(Nc2nc(N)n(-c3cc(N4CCCN(C(C)=O)CC4)ncn3)n2)cc1` [Compound 129]: the Ki on JAK3 and at JAK-2 enzyme was below 50 nM throughout.

Take `CC(=O)N1CCCN(c2cc(-n3nc(Nc4ccc(N5CCNCC5)cc4)nc3N)ncn2)CC1` [Compound 42]: the inhibitory constant (Ki) at JAK3 and on JAK-2 enzyme was below 50 nM each time.

For `CCCOC(=O)N1CCN(c2ccc(Nc3nc(N)n(-c4ccnc(N5CCCN(S(=O)(=O)C(C)C)CC5)c4)n3)cc2)CC1` [Compound 165], the Ki at JAK3 and on JAK-2 enzyme was 50 to 500 nM in each case.

With `CCOC(=O)N1CCN(c2ccc(Nc3nc(N)n(-c4cc(N5CCCN(S(C)(=O)=O)CC5)ncn4)n3)cc2)CC1` [Compound 144], the inhibition constant (Ki) on JAK3 and on JAK-2 enzyme was 50 to 500 nM in each case.

Consider `CC(=O)N1CCCN(c2cc(-n3nc(Nc4ccc(NC(=O)c5cccnc5)cc4)nc3N)ncn2)CC1` [Compound 27], for which the Ki on JAK3 and on JAK-2 enzyme was below 50 nM throughout.

For `CC(=O)N1[C@H](C)CN(c2cc(-n3nc(Nc4ccc(NC(=O)NC(C)(C)C)cc4)nc3N)ncn2)C[C@@H]1C` [Compound 70], the Ki on JAK3 and on JAK-2 enzyme was below 50 nM each time.

Regarding `CC(=O)N1[C@H](C)CN(c2cc(-n3nc(Nc4ccc(N5CCNCC5)cc4)nc3N)ncn2)C[C@@H]1C` [Compound 59], the inhibition constant Ki at JAK3 and on JAK-2 enzyme was below 50 nM throughout.

In the case of `CC(=O)N1[C@H](C)CN(c2cc(-n3nc(Nc4ccc(NC(=O)OC(C)C)cc4)nc3N)ccn2)C[C@@H]1C` [Compound 103], the Ki at JAK3 and on JAK-2 enzyme was below 50 nM in each case.

Turning to `COC(=O)N1CCN(c2ccc(Nc3nc(N)n(-c4cc(N5C[C@@H](C)N(C(C)=O)[C@@H](C)C5)ncn4)n3)cc2)CC1` [Compound 53], the inhibitory constant (Ki) on JAK3 and on JAK-2 enzyme was below 50 nM each time.

Regarding `COC(=O)Nc1ccc(Nc2nc(N)n(-c3cc(N4C[C@@H](C)N(C(C)=O)[C@@H](C)C4)ncn3)n2)cc1` [Compound 75], the Ki on JAK3 and on JAK-2 enzyme was below 50 nM throughout.

Consider `COC1CCC(C(=O)Nc2ccc(Nc3nc(N)n(-c4cc(N5CCCN(C(C)=O)CC5)ncn4)n3)cc2)CC1` (stereo not drawn) [Compound 31], for which the Ki at JAK3 and on JAK-2 enzyme was below 50 nM each time.

In the case of `CCCOC(=O)N1CCN(c2ccc(Nc3nc(N)n(-c4ccnc(N5CCCN(S(=O)(=O)CCC)CC5)c4)n3)cc2)CC1` [Compound 164], the inhibition constant Ki on JAK3 and on JAK-2 enzyme was 50 to 500 nM each time.

Take `CC(C)(C)OC(=O)N1CCN(c2ccc(Nc3nc(N)n(-c4cc(N5CCCN(C(=O)CC#N)CC5)ncn4)n3)cc2)CC1` [Compound 122]: the inhibitory constant (Ki) on JAK3 and on JAK-2 enzyme was below 50 nM in each case.

For `CC(=O)N1[C@H](C)CN(c2cc(-n3nc(Nc4ccc(N5CCN(C(=O)OC(C)C)CC5)cc4)nc3N)ccn2)C[C@@H]1C` [Compound 143], the inhibition constant (Ki) on JAK3 and on JAK-2 enzyme was below 50 nM in each case.

In the case of `CCCOC(=O)N1CCN(c2ccc(Nc3nc(N)n(-c4ccnc(N5CCCN(C(=O)OC(C)C)CC5)c4)n3)cc2)CC1` [Compound 161], the inhibitory constant (Ki) on JAK3 and at JAK-2 enzyme was 50 to 500 nM each time.

As for `CCS(=O)(=O)N1CCN(c2ccc(Nc3nc(N)n(-c4ccnc(N5CCCN(C(=O)OC(C)C)CC5)c4)n3)cc2)CC1` [Compound 155], the Ki at JAK3 and at JAK-2 enzyme was 50 to 500 nM throughout.

Take `CC(=O)N1CCCN(c2cc(-n3nc(Nc4ccc(N5C[C@@H](C)O[C@@H](C)C5)cc4)nc3N)ncn2)CC1` [Compound 33]: the Ki at JAK3 and at JAK-2 enzyme was below 50 nM in each case.

Turning to `CC(=O)N1CCCN(c2cc(-n3nc(Nc4ccc(N5CCN(C(=O)C6CC6)CC5)cc4)nc3N)ncn2)CC1` [Compound 39], the Ki at JAK3 and on JAK-2 enzyme was below 50 nM each time.

Consider `CC(=O)N1[C@H](C)CN(c2cc(-n3nc(Nc4ccc(N5CCN(C(=O)OC(C)C)CC5)cc4)nc3N)ncn2)C[C@@H]1C` [Compound 56], for which the inhibition constant Ki at JAK3 and at JAK-2 enzyme was below 50 nM each time.
